Active and inactive are the calls of the source. The rule behind the calls is not given here.
Tested on: CCRIS mutagenicity, Ames/micronucleus/aberration tests
Experiment: CCRIS mutagenicity studies
[1] = Test System: AMES SALMONELLA TYPHIMURIUM, Strain/Indicator: TA100, Metabolic Activation: NONE, Method: STANDARD PLATE
[2] = Test System: AMES SALMONELLA TYPHIMURIUM, Strain/Indicator: TA100, Metabolic Activation: RAT, LIVER, S-9, AROCLOR 1254, Method: STANDARD PLATE

In the case of `ClCC(Cl)CCl`, the mutagenic call (End Point: IN VITRO CHROMOSOMAL ABERRATIONS, Test System: CHL CELLS, Metabolic Activation: NONE) is reported as “inactive; negative”, the mutagenic call (End Point: IN VITRO CHROMOSOMAL ABERRATIONS, Test System: CHL CELLS, Metabolic Activation: RAT, LIVER, S-9, SODIUM PHENOBARBITAL AND 5,6-BENZOFLAVONE) is reported as “active; positive (structural changes)” and the mutagenic call (Test System: AMES SALMONELLA TYPHIMURIUM, Strain/Indicator: TA97, Metabolic Activation: HAMSTER, LIVER, S-9, AROCLOR 1254 (10%), Method: PREINCUBATION) is reported as “active; positive”. For the same compound, the mutagenic call (Test System: AMES SALMONELLA TYPHIMURIUM, Strain/Indicator: TA97, Metabolic Activation: NONE, Method: PREINCUBATION) was “inactive; negative”, the mutagenic call (Test System: AMES SALMONELLA TYPHIMURIUM, Strain/Indicator: TA97, Metabolic Activation: RAT, LIVER, S-9, AROCLOR 1254 (10%), Method: PREINCUBATION) was “active; positive” and the mutagenic call (Test System: AMES SALMONELLA TYPHIMURIUM, Strain/Indicator: TA98, Metabolic Activation: HAMSTER, LIVER, S-9, AROCLOR 1254 (10%), Method: PREINCUBATION) was “active; positive”. For the same compound, the mutagenic call (Test System: AMES SALMONELLA TYPHIMURIUM, Strain/Indicator: TA98, Metabolic Activation: HAMSTER, LIVER, S-9, AROCLOR 1254, Method: PREINCUBATION) was “inactive; negative”, the mutagenic call (Test System: AMES SALMONELLA TYPHIMURIUM, Strain/Indicator: TA98, Metabolic Activation: NONE, Method: PREINCUBATION) was “inactive; negative” and the mutagenic call (Test System: AMES SALMONELLA TYPHIMURIUM, Strain/Indicator: TA98, Metabolic Activation: RAT, LIVER, S-9, AROCLOR 1254, Method: PREINCUBATION) was “inactive; negative”. The mutagenic call (Test System: AMES SALMONELLA TYPHIMURIUM, Strain/Indicator: TA100, Metabolic Activation: HAMSTER, LIVER, S-9, AROCLOR 1254 (10%), Method: PREINCUBATION) was “active; positive”, the mutagenic call (Test System: AMES SALMONELLA TYPHIMURIUM, Strain/Indicator: TA100, Metabolic Activation: HAMSTER, LIVER, S-9, AROCLOR 1254, Method: PREINCUBATION) was “active; positive” and the mutagenic call (Test System: AMES SALMONELLA TYPHIMURIUM, Strain/Indicator: TA100, Metabolic Activation: NONE, Method: PREINCUBATION) was “inactive; negative”. For the same compound, the mutagenic call (Test System: AMES SALMONELLA TYPHIMURIUM, Strain/Indicator: TA100, Metabolic Activation: RAT, LIVER, MICROSOMES, PHENOBARBITAL, NADPH COFACTORS, Method: STANDARD PLATE) was “active; positive”, the mutagenic call (Test System: AMES SALMONELLA TYPHIMURIUM, Strain/Indicator: TA100, Metabolic Activation: RAT, LIVER, MICROSOMES, PHENOBARBITAL, Method: STANDARD PLATE) was “inactive; negative” and the mutagenic call (Test System: AMES SALMONELLA TYPHIMURIUM, Strain/Indicator: TA100, Metabolic Activation: RAT, LIVER, S-9, AROCLOR 1254 (10%), Method: PREINCUBATION) was “active; positive”. The mutagenic call (Test System: AMES SALMONELLA TYPHIMURIUM, Strain/Indicator: TA100, Metabolic Activation: RAT, LIVER, S-9, AROCLOR 1254, Method: PREINCUBATION) was “active; positive”, the mutagenic call (Test System: AMES SALMONELLA TYPHIMURIUM, Strain/Indicator: TA1535, Metabolic Activation: HAMSTER, LIVER, S-9, AROCLOR 1254 (10%), Method: PREINCUBATION) was “active; positive” and the mutagenic call (Test System: AMES SALMONELLA TYPHIMURIUM, Strain/Indicator: TA1535, Metabolic Activation: HAMSTER, LIVER, S-9, AROCLOR 1254, Method: PREINCUBATION) was “active; positive”. The mutagenic call (Test System: AMES SALMONELLA TYPHIMURIUM, Strain/Indicator: TA1535, Metabolic Activation: NONE, Method: PREINCUBATION) was “inactive; negative”, the mutagenic call (Test System: AMES SALMONELLA TYPHIMURIUM, Strain/Indicator: TA1535, Metabolic Activation: RAT, LIVER, S-9, AROCLOR 1254 (10%), Method: PREINCUBATION) was “active; positive” and the mutagenic call (Test System: AMES SALMONELLA TYPHIMURIUM, Strain/Indicator: TA1535, Metabolic Activation: RAT, LIVER, S-9, AROCLOR 1254, Method: PREINCUBATION) was “active; positive”. For the same compound, the mutagenic call (Test System: AMES SALMONELLA TYPHIMURIUM, Strain/Indicator: TA1537, Metabolic Activation: HAMSTER, LIVER, S-9, AROCLOR 1254 (10%), Method: PREINCUBATION) was “inactive; negative”, the mutagenic call (Test System: AMES SALMONELLA TYPHIMURIUM, Strain/Indicator: TA1537, Metabolic Activation: NONE, Method: PREINCUBATION) was “inactive; negative” and the mutagenic call (Test System: AMES SALMONELLA TYPHIMURIUM, Strain/Indicator: TA1537, Metabolic Activation: RAT, LIVER, S-9, AROCLOR 1254 (10%), Method: PREINCUBATION) was “inactive; negative”. The mutagenic call (Test System: AMES SALMONELLA TYPHIMURIUM, Strain/Indicator: TA1537, Metabolic Activation: RAT, LIVER, S-9, AROCLOR 1254, Method: PREINCUBATION) was “inactive; negative”, the mutagenic call (Test System: MOUSE LYMPHOMA, Strain/Indicator: L5178Y (TK+/TK-), Metabolic Activation: NONE, Method: SUSPENSION/PLATE) was “inactive; negative” and the mutagenic call (Test System: MOUSE LYMPHOMA, Strain/Indicator: L5178Y (TK+/TK-), Metabolic Activation: RAT, LIVER, S-9, AROCLOR 1254, Method: SUSPENSION/PLATE) was “active; positive”.

With `c1ccc2c(OC[C@H]3CO3)cccc2c1` the mutagenic call [1] was “active; positive”.

With `CC1(C)[C@H](/C=C(\Cl)C(F)(F)F)[C@@H]1C(=O)O[C@@H](C#N)c1cccc(Oc2ccccc2)c1` the mutagenic call (End Point: IN VIVO CHROMOSOMAL ABERRATIONS, Test System: BONE MARROW, Species: RAT, Strain/Sex: WISTAR/FEMALE, Route: IP) was “active; positive (structural changes)”, the mutagenic call (End Point: IN VIVO MICRONUCLEUS, Test System: BONE MARROW POLYCHROMATIC ERYTHROCYTES, Species: RAT, Strain/Sex: WISTAR/FEMALE, Route: ORAL (GAVAGE)) was “active; positive” and the mutagenic call (End Point: IN VIVO MICRONUCLEUS, Test System: BONE MARROW, Species: RAT, Strain/Sex: WISTAR/FEMALE, Route: IP) was “active; positive”. The mutagenic call (End Point: IN VIVO MICRONUCLEUS, Test System: POLYCHROMATIC ERYTHROCYTES FROM COLONIC CRYPT EPITHELIAL CELLS, Species: RAT, Strain/Sex: WISTAR/FEMALE, Route: ORAL (GAVAGE)) was “active; positive”.

With `O=c1c2c(c3c(ccc4ccc[nH]c43)c1O)O2` the mutagenic call [1] was “active; positive”.

With `COC1=CC(=O)c2nc(C)c3c([nH]c4ccccc43)c2C1=O` the mutagenic call (Test System: AMES SALMONELLA TYPHIMURIUM, Strain/Indicator: TA97, Metabolic Activation: NONE, Method: STANDARD PLATE) was “active; positive”, the mutagenic call (Test System: AMES SALMONELLA TYPHIMURIUM, Strain/Indicator: TA97, Metabolic Activation: RAT, LIVER, S-9, AROCLOR 1254, Method: STANDARD PLATE) was “active; positive” and the mutagenic call (Test System: AMES SALMONELLA TYPHIMURIUM, Strain/Indicator: TA98, Metabolic Activation: NONE, Method: STANDARD PLATE) was “inactive; negative”. The mutagenic call (Test System: AMES SALMONELLA TYPHIMURIUM, Strain/Indicator: TA98, Metabolic Activation: RAT, LIVER, S-9, AROCLOR 1254, Method: STANDARD PLATE) was “active; positive”, the mutagenic call [1] was “active; positive” and the mutagenic call [2] was “inactive; negative”. For the same compound, the mutagenic call (Test System: AMES SALMONELLA TYPHIMURIUM, Strain/Indicator: TA102, Metabolic Activation: NONE, Method: STANDARD PLATE) was “inactive; negative” and the mutagenic call (Test System: AMES SALMONELLA TYPHIMURIUM, Strain/Indicator: TA102, Metabolic Activation: RAT, LIVER, S-9, AROCLOR 1254, Method: STANDARD PLATE) was “inactive; negative”.

`C[C@@H]1CC2c3cccc4c3c(cn4C3CCCC3)C[C@H]2N(C)C1` (some centres undefined) was tested, and the mutagenic call [2] was “active; positive”.

`CNc1nncc2ccccc12` was tested, and the mutagenic call [1] was “active; positive”, the mutagenic call (Test System: AMES SALMONELLA TYPHIMURIUM, Strain/Indicator: TA100, Metabolic Activation: RAT, LIVER, S-9, PHENOBARBITAL, Method: STANDARD PLATE) was “active; positive” and the mutagenic call (Test System: UDS RAT HEPATOCYTES, Strain/Indicator: THY INCORP, Metabolic Activation: NONE, Method: AUTORADIOGRAPHY) was “active; positive”. The mutagenic call (Test System: UDS RODENT HEPATOCYTES, Strain/Indicator: THY INCORP (NON-S-PHASE), Metabolic Activation: HOST-MEDIATED, Method: IN VIVO-IN VITRO) was “inactive; negative”.

For `CCCC(=O)N=c1sn(C(=O)CCC)c2ccc([N+](=O)[O-])cc12`, the mutagenic call (Test System: AMES SALMONELLA TYPHIMURIUM, Strain/Indicator: TA100, Metabolic Activation: S-9, Method: STANDARD PLATE) was “active; positive”.

With `Nc1ccc(-c2ccc(-c3ccc(-c4ccc(N)cc4)cc3)cc2)cc1` the mutagenic call (Test System: AMES SALMONELLA TYPHIMURIUM, Strain/Indicator: TA1538, Metabolic Activation: NONE, Method: STANDARD PLATE) was “inactive; negative” and the mutagenic call (Test System: AMES SALMONELLA TYPHIMURIUM, Strain/Indicator: TA1538, Metabolic Activation: RAT, LIVER, S-9, AROCLOR 1254, Method: STANDARD PLATE) was “inactive; negative”.

From PubChem BioAssay AID1259407 (Chemical Carcinogenesis Research Information System (CCRIS), 2018)
